# Values joined by “and” are separate entries in the source; they are usually repeats but may differ in a detail not shown here. Equal values may be shown once. Read-outs that look alike come from different tables or passages of the source.
# Legend:
# Test in all cases: Greenhouse test, pre-emergence treatment
# ALOMY = type: in vivo, Alopecurus myosuroides; conditions: Alopecurus myosuroides, pre-emergence, 480 h
# Excerpt: (§1) The culture containers used were plastic flowerpots containing loamy sand with approximately 3.0% of humus as the substrate. The seeds of the test plants were sown separately for each species.
# (§2) For the pre-emergence treatment, the active ingredients, which had been suspended or emulsified in water, were applied directly after sowing by means of finely distributing nozzles. The containers were irrigated gently to promote germination and growth and subsequently covered with transparent plastic hoods until the plants had rooted. This cover caused uniform germination of the test plants, unless this had been impaired by the active ingredients.
# (§3) Depending on the species, the plants were kept at 10-25° C. or 20-35° C., respectively.
# (§4) The test period extended over 2 to 4 weeks. During this time, the plants were tended, and their response to the individual treatments was evaluated.
# (§5) Evaluation was carried out using a scale from 0 to 100. 100 means no emergence of the plants, or complete destruction of at least the aerial moieties, and 0 means no damage, or normal course of growth. A moderate herbicidal activity is given at values of at least 60, a good herbicidal activity is given at values of at least 70, and a very good herbicidal activity is given at values of at least 85.
# (§6) The respective stated components a and b, and if appropriate, c were formulated as a 10% by weight strength emulsion concentrate and, with addition of the amount of solvent system, introduced into the spray liquor used for applying the active compound.
# (§7) In the examples, the solvent used was water.
# (§8) In the examples below, using the method of S. R. Colby (1967) “Calculating synergistic and antagonistic responses of herbicide combinations”, Weeds 15, p. 22ff., the value E, which is expected if the activity of the individual active compounds is only additive, was calculated. E=X+Y−(X·Y/100) where • X=percent activity using active compound a at an application rate A; • Y=percent activity using active compound b at an application rate B; • E=expected activity (in %) by a+b at application rates A+B.
# (§9) If the value found experimentally is higher than the value E calculated according to Colby, a synergistic effect is present.
# GALAP = type: in vivo, Galium aparine; conditions: pre-emergence
# Excerpt: as §1, §2, §3, §4, §5, §6, §7, §8, §9
# KCHSC = type: in vivo, Kochia scoparia; conditions: pre-emergence
# Excerpt: as §1, §2, §3, §4, §5, §6, §7, §8, §9
# ABUTH = type: in vivo, Abutilon theophrasti; conditions: Abutilon theophrasti, 480 h
# Excerpt: as §1, §2, §3, §4, §5, §6, §7, §8, §9
# EPHHL = type: in vivo, Euphorbia heterophylla; conditions: pre-emergence
# Excerpt: as §1, §2, §3, §4, §5, §6, §7, §8, §9
# COMBE = type: in vivo, Commelina benghalensis; conditions: Commelina benghalensis, pre-emergence, 480 h
# Excerpt: as §1, §2, §3, §4, §5, §6, §7, §8, §9
# CENCY = type: in vivo; conditions: 480 h, individual, read-out: observed % activity 20 DAT
# SIDRH = type: in vivo, Sida rhombifolia; conditions: Sida rhombifolia, pre-emergence, 480 h
# Excerpt: as §1, §2, §3, §4, §5, §6, §7, §8, §9
# IPOHE = type: in vivo, Ipomoea hederacea; conditions: Ipomoea hederacea, 480 h
# Excerpt: as §1, §2, §3, §4, §5, §6, §7, §8, §9
# POLCO = type: in vivo, Polygonum convolvulus; conditions: pre-emergence
# Excerpt: as §1, §2, §3, §4, §5, §6, §7, §8, §9
# GERPU = type: in vivo, Geranium pusillum; conditions: Geranium pusillum, pre-emergence, 480 h
# Excerpt: as §1, §2, §3, §4, §5, §6, §7, §8, §9
# ANTAR = type: in vivo; conditions: Anthemis arvensis, 480 h, 20 DAT, read-out: observed % activity
# Excerpt: as §1, §2, §3, §4, §5, §6, §7, §8, §9
# SETFA = type: in vivo, Setaria faberi; conditions: SETFA, use rate 25 g ai/ha, 20 DAT
# Excerpt: as §1, §2, §3, §4, §5, §6, §7, §8, §9
# [1] = 375 g ai/ha, 20 DAT, read-out: observed % activity
# [2] = 750 g ai/ha, 20 DAT, read-out: observed % activity
# [3] = 15 g ai/ha, read-out: observed % activity 20 DAT
# [4] = 20 g ai/ha, 20 DAT, read-out: observed % activity
# [5] = 30 g ai/ha, read-out: observed % activity 20 DAT
# [6] = 40 g ai/ha, 20 DAT, read-out: observed % activity
compound,measurement,setting,value
CCOCN(C(=O)CCl)c1c(C)cccc1CC [acetochlor],inhibition at 125 g/ha,"ALOMY; 125 g ai/ha, 20 DAT, read-out: observed % activity",0%
same,inhibition at 125 g/ha,"GALAP; Galium aparine, 480 h, 125 g ai/ha, 20 DAT, read-out: observed % activity",60%
same,inhibition at 125 g/ha,"KCHSC; Bassia scoparia, 480 h, 125 g ai/ha, 20 DAT, read-out: observed % activity",0%
"O=C(O)CNCP(=O)(O)O [Glyphosate, glyphosate]",inhibition at 125 g/ha,ALOMY; read-out: observed % activity 20 DAT,0%
"CC(C)c1ccc(NC(=O)N(C)C)cc1 [Isoproturon, isoproturon]",inhibition at 375 g/ha,ABUTH; [1],20%
same,inhibition at 750 g/ha,ABUTH; [2],65%
same,inhibition at 250 g/ha,"ABUTH; ABUTH, individual, use rate 250 g ai/ha, read-out: observed % activity 20 DAT",50%
same,inhibition at 500 g/ha,"ABUTH; ABUTH, individual, use rate 500 g ai/ha, read-out: observed % activity 20 DAT",15%
same,observed % activity 20 DAT,"EPHHL; EPHHL, individual, use rate 250 g ai/ha",10% and 25%
same,inhibition at 500 g/ha,"EPHHL; Euphorbia heterophylla, 480 h, EPHHL, individual, use rate 500 g ai/ha, read-out: observed % activity 20 DAT",35%
same,inhibition at 375 g/ha,COMBE; [1],0%
same,inhibition at 750 g/ha,COMBE; [2],45%
same,inhibition at 250 g/ha,"COMBE; COMBE, individual, use rate 250 g ai/ha, read-out: observed % activity 20 DAT",0%
same,inhibition at 500 g/ha,"COMBE; COMBE, individual, use rate 500 g ai/ha, read-out: observed % activity 20 DAT",10%
same,inhibition at 250 g/ha,CENCY; use rate 250 g ai/ha,30%
same,inhibition at 500 g/ha,CENCY; use rate 500 g ai/ha,30%
same,inhibition at 375 g/ha,SIDRH; [1],0%
same,inhibition at 250 g/ha,"SIDRH; SIDRH, individual, use rate 250 g ai/ha, read-out: observed % activity 20 DAT",0%
same,inhibition at 500 g/ha,"SIDRH; SIDRH, individual, use rate 500 g ai/ha, read-out: observed % activity 20 DAT",40%
same,inhibition at 750 g/ha,IPOHE; [2],40%
same,observed % activity 20 DAT,"GALAP; GALAP, individual, use rate 500 g ai/ha",65% and 15%
same,inhibition at 250 g/ha,"GALAP; Galium aparine, 480 h, GALAP, individual, use rate 250 g ai/ha, read-out: observed % activity 20 DAT",30%
same,inhibition at 375 g/ha,"POLCO; Fallopia convolvulus, 480 h, 375 g ai/ha, 20 DAT, read-out: observed % activity",0%
same,inhibition at 750 g/ha,"POLCO; Fallopia convolvulus, 480 h, 750 g ai/ha, 20 DAT, read-out: observed % activity",25%
same,inhibition at 250 g/ha,"POLCO; Fallopia convolvulus, 480 h, POLCO, individual, use rate 250 g ai/ha, read-out: observed % activity 20 DAT",10%
same,inhibition at 375 g/ha,GERPU; [1],20%
same,inhibition at 750 g/ha,GERPU; [2],40%
same,inhibition at 500 g/ha,"GERPU; GERPU, individual, use rate 500 g ai/ha, read-out: observed % activity 20 DAT",0%
same,inhibition at 750 g/ha,"KCHSC; Bassia scoparia, 480 h, 750 g ai/ha, 20 DAT, read-out: observed % activity",98%
same,inhibition at 250 g/ha,"KCHSC; Bassia scoparia, 480 h, KCHSC, individual, use rate 250 g ai/ha, read-out: observed % activity 20 DAT",98%
same,inhibition at 500 g/ha,"KCHSC; Bassia scoparia, 480 h, KCHSC, individual, use rate 500 g ai/ha, read-out: observed % activity 20 DAT",98%
CCc1cnc(C2=NC(C)(C(C)C)C(=O)N2)c(C(=O)O)c1 (stereo not shown) [imazethapyr],inhibition at 15 g/ha,ABUTH; [3],0%
same,inhibition at 20 g/ha,ABUTH; [4],60%
same,inhibition at 30 g/ha,ABUTH; [5],15%
same,inhibition at 40 g/ha,ABUTH; [6],80%
same,inhibition at 30 g/ha,"EPHHL; Euphorbia heterophylla, 480 h, 30 g ai/ha, read-out: observed % activity 20 DAT",65%
same,inhibition at 20 g/ha,COMBE; [4],45%
same,inhibition at 40 g/ha,COMBE; [6],65%
same,inhibition at 15 g/ha,COMBE; [3],0%
same,inhibition at 30 g/ha,COMBE; [5],35%
same,inhibition at 20 g/ha,SIDRH; [4],45%
same,inhibition at 40 g/ha,SIDRH; [6],80%
same,inhibition at 15 g/ha,SIDRH; [3],15%
same,inhibition at 30 g/ha,SIDRH; [5],60%
same,inhibition at 30 g/ha,IPOHE; [5],0%
same,inhibition at 20 g/ha,ANTAR; 20 g ai/ha,30%
same,inhibition at 40 g/ha,ANTAR; 40 g ai/ha,30%
same,inhibition at 15 g/ha,"GALAP; Galium aparine, 480 h, 15 g ai/ha, read-out: observed % activity 20 DAT",50%
same,inhibition at 30 g/ha,"GALAP; Galium aparine, 480 h, 30 g ai/ha, read-out: observed % activity 20 DAT",60%
same,inhibition at 20 g/ha,"POLCO; Fallopia convolvulus, 480 h, 20 g ai/ha, 20 DAT, read-out: observed % activity",35%
same,inhibition at 40 g/ha,"POLCO; Fallopia convolvulus, 480 h, 40 g ai/ha, 20 DAT, read-out: observed % activity",90%
same,inhibition at 15 g/ha,"POLCO; Fallopia convolvulus, 480 h, 15 g ai/ha, read-out: observed % activity 20 DAT",30%
same,inhibition at 30 g/ha,"POLCO; Fallopia convolvulus, 480 h, 30 g ai/ha, read-out: observed % activity 20 DAT",65%
same,observed % activity 20 DAT,POLCO; 30 g ai/ha,60%
same,inhibition at 20 g/ha,GERPU; [4],20%
same,inhibition at 40 g/ha,GERPU; [6],85%
same,inhibition at 15 g/ha,GERPU; [3],30%
same,inhibition at 30 g/ha,GERPU; [5],30%
same,inhibition at 15 g/ha,"KCHSC; Bassia scoparia, 480 h, 15 g ai/ha, read-out: observed % activity 20 DAT",70%
same,inhibition at 30 g/ha,"KCHSC; Bassia scoparia, 480 h, 30 g ai/ha, read-out: observed % activity 20 DAT",85%
"O=C(Nc1ccc(F)cc1)c1cccc(Oc2cccc(C(F)(F)F)c2)n1 [Picolinafen, picolinafen]",observed % activity 20 DAT,SETFA,10%
same,observed % activity 20 DAT,"POLCO; POLCO, use rate 25 g ai/ha, 20 DAT",0%
same,observed % activity 20 DAT,"POLCO; POLCO, use rate 50 g ai/ha, 20 DAT",0%
same,observed % activity 20 DAT,"KCHSC; KCHSC, use rate 50 g ai/ha, 20 DAT",30%

# From patent US9999222B2, “Herbicidal combination comprising azines” (BASF SE, priority 2014, dated 2018)
